Holding throughout (experiment): cell-based
The target in one experiment is hNav1.7 (Homo sapiens, UniProt Q15858). Format: cell-based.
The target of the next experiment is hNav1.5 (Homo sapiens, UniProt Q14524).
A further experiment deals with hNav1.3 (Homo sapiens, UniProt Q9NY46).
Where [1] appears, read: IonWorks Quattro, clamped to −110 mV, depolarized to −10 mV, 5 min after compound, n=2, read-out: IWQ Use Nav1.7.
Setting [2] is: IonWorks Quattro, clamped to −110 mV, depolarized to −10 mV, 5 min after compound, n=2, read-out: IWQ Use Nav1.5.
The mark [3] stands for this setting: IonWorks Quattro, clamped to −110 mV, depolarized to −10 mV, 5 min after compound, n=2, read-out: IWQ Use Nav1.3.

Like-named read-outs stand apart in the source and are kept apart here. Positions of bridges follow the written chain, without caps; N, C: chain ends. Residues, ends and D or L forms follow the SMILES beside them.

hNav1.3, sequence (Q9NY46 whole entry, looked up): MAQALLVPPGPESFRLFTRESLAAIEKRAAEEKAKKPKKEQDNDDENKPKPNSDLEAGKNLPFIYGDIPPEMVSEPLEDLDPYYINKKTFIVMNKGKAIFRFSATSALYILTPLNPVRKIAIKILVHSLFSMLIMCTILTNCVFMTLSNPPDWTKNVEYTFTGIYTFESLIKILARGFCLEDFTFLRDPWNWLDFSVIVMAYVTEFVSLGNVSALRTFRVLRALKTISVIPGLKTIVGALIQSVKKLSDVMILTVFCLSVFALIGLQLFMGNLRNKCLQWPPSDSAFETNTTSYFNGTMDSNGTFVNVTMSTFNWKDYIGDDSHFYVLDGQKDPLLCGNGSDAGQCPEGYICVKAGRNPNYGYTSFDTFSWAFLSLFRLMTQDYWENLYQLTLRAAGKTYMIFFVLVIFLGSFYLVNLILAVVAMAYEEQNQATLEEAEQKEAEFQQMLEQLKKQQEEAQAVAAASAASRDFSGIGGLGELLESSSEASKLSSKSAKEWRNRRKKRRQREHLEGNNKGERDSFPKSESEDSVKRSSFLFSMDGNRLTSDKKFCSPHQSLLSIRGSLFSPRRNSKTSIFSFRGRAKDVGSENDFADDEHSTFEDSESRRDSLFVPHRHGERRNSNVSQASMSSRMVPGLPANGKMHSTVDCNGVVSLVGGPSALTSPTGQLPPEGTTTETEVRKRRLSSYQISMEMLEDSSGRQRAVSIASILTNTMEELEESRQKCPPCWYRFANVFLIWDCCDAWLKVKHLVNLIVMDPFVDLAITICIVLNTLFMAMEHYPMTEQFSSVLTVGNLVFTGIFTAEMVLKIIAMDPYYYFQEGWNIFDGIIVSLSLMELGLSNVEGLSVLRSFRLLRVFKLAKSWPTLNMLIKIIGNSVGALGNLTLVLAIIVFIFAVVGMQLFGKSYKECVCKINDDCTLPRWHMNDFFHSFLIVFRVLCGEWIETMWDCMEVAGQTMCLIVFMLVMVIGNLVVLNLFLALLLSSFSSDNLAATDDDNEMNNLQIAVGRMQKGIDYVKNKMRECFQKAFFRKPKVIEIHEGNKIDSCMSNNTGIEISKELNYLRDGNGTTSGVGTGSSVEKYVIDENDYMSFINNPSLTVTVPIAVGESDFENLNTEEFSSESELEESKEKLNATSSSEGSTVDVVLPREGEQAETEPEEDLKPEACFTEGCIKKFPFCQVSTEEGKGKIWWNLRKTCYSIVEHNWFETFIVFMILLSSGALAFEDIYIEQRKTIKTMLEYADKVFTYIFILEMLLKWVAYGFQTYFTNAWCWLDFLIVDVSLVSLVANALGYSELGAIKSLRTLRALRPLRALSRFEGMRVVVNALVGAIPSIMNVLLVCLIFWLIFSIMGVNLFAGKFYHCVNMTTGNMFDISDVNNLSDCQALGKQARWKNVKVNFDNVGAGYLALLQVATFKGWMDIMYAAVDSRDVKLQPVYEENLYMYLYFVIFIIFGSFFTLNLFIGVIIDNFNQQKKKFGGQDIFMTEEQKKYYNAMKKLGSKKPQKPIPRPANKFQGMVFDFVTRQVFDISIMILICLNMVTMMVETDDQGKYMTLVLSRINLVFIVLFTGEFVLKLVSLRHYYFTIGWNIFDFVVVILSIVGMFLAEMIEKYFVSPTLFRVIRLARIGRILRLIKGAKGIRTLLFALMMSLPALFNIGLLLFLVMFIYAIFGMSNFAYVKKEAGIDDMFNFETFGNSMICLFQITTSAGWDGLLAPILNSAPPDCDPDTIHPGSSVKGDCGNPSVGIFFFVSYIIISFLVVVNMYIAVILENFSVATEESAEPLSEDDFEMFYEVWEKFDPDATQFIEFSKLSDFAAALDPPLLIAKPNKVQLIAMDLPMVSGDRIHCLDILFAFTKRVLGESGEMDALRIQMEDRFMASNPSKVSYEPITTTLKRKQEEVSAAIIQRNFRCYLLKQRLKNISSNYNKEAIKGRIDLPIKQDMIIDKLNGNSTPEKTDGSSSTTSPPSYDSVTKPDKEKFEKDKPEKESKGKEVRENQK
hNav1.7, sequence (Q15858 whole entry, looked up): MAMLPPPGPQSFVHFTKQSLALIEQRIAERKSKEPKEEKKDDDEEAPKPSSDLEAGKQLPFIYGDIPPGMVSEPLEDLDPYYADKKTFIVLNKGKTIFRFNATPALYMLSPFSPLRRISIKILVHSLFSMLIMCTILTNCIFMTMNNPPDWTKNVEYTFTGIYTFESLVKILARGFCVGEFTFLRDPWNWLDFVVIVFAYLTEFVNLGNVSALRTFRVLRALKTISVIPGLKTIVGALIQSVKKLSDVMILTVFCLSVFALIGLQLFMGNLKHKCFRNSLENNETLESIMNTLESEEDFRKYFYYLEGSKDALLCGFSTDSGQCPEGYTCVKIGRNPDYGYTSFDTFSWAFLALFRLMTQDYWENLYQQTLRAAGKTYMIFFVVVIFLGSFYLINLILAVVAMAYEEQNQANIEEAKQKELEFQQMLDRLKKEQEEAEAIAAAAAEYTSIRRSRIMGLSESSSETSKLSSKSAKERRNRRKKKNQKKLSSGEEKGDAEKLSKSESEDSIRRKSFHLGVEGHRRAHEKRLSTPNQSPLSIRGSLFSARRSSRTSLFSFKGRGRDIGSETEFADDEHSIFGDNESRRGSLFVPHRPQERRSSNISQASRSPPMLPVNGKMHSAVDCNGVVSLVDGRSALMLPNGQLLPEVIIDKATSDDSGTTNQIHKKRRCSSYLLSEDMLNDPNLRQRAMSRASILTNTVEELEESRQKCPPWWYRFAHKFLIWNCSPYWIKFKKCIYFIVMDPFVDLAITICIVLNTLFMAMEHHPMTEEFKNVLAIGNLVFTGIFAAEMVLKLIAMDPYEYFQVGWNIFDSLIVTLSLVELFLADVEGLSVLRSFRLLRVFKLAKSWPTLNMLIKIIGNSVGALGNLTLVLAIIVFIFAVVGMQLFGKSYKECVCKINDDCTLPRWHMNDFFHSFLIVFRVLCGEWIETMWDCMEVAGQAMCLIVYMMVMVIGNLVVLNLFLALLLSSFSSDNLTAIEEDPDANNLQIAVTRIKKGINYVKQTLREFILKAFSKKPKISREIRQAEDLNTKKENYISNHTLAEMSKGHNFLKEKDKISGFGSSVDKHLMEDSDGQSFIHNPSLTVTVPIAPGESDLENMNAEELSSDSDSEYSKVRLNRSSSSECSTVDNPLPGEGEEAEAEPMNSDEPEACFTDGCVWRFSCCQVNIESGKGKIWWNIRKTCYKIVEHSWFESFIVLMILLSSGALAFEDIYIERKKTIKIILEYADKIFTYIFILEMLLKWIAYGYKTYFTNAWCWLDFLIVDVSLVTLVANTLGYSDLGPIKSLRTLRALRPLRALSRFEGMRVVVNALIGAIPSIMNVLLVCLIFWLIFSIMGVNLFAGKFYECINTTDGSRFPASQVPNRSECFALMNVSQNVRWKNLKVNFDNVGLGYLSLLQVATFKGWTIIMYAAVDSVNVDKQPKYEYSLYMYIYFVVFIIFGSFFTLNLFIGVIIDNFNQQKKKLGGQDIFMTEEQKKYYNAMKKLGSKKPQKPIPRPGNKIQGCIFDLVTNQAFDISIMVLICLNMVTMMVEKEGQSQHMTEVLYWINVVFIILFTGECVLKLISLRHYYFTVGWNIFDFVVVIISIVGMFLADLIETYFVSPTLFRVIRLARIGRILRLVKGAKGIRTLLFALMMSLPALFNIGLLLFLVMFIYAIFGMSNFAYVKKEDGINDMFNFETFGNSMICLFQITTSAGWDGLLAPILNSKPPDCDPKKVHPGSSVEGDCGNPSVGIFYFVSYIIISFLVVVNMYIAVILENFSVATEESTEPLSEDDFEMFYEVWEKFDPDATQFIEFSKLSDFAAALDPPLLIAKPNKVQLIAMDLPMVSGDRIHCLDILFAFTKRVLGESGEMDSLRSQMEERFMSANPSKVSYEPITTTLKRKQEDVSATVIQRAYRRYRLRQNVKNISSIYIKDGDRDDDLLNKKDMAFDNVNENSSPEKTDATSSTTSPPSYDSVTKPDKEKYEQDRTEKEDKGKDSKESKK

On to `CC[C@H](C)[C@H](N)C(=O)N[C@H]1CSSC[C@@H]2NC(=O)[C@@H]3CSSC[C@@H](C(=O)N[C@@H](CCCCN)C(=O)N[C@@H](Cc4ccc(O)cc4)C(=O)N[C@H](C(=O)N[C@@H](Cc4ccccc4)C(N)=O)C(C)C)NC(=O)[C@H](Cc4c[nH]c5ccccc45)NC(=O)[C@H](CCCCN)NC(=O)[C@H](Cc4c[nH]cn4)NC(=O)[C@H]([C@@H](C)O)NC(=O)[C@H](CCCNC(=N)N)NC(=O)[C@H](CO)NC(=O)[C@H](CSSC[C@H](NC(=O)[C@H](CCCCN)NC(=O)[C@H](CCCNC(=N)N)NC(=O)[C@H](CCSC)NC(=O)[C@H](Cc4ccccc4)NC(=O)CNC(=O)[C@H](CC(C)C)NC1=O)C(=O)N[C@@H]([C@@H](C)CC)C(=O)N1CCC[C@H]1C(=O)N[C@@H](CC(=O)O)C(=O)N[C@@H](CC(N)=O)C(=O)N[C@@H](CC(=O)O)C(=O)N[C@@H](CCCCN)C(=O)N3)NC(=O)[C@H](C(C)C)NC(=O)[C@H](CC(C)C)NC(=O)[C@H](CC(N)=O)NC(=O)[C@@H]1CCCN1C(=O)[C@H](CCCNC(=N)N)NC2=O` [SEQ ID NO: 189] (H-ICLGFMRKCIPDNDKCCRPNLVCSRTHKWCKYVF-NH2; disulfide 2-17, 9-23, 16-30), for which the IC50 was 100 nM at hNav1.7 (setting [1]), 8.15 µM at hNav1.5 (setting [2]) and 70 nM on hNav1.3 (setting [3]).
As for `CC[C@H](C)[C@@H]1NC(=O)[C@@H]2CSSC[C@@H]3NC(=O)[C@H](C(C)C)NC(=O)[C@H](CC(C)C)NC(=O)[C@H](CC(N)=O)NC(=O)[C@@H]4CCCN4C(=O)[C@H](CCCNC(=N)N)NC(=O)[C@H](CSSC[C@H](NC(=O)[C@@H]4CCCN4)C(=O)N[C@@H](CC(C)C)C(=O)NCC(=O)N[C@@H](Cc4ccccc4)C(=O)N[C@@H](CCSC)C(=O)N[C@@H](CCCNC(=N)N)C(=O)N[C@@H](CCCCN)C(=O)N2)NC(=O)[C@H](CSSC[C@@H](C(=O)N[C@@H](CCCCN)C(=O)N[C@@H](Cc2ccc(O)cc2)C(=O)N[C@H](C(=O)N[C@@H](Cc2ccccc2)C(N)=O)C(C)C)NC(=O)[C@H](Cc2c[nH]c4ccccc24)NC(=O)[C@H](CCCCN)NC(=O)[C@H](Cc2c[nH]cn2)NC(=O)[C@H]([C@@H](C)O)NC(=O)[C@H](CCCNC(=N)N)NC(=O)[C@H](CO)NC3=O)NC(=O)[C@H](CCCCN)NC(=O)[C@H](CC(=O)O)NC(=O)[C@H](CC(N)=O)NC(=O)[C@H](CC(=O)O)NC(=O)[C@@H]2CCCN2C1=O` [SEQ ID NO: 190] (H-PCLGFMRKCIPDNDKCCRPNLVCSRTHKWCKYVF-NH2; disulfide 2-17, 9-23, 16-30), the IC50 at hNav1.7 (setting [1]) worked out at 90 nM; on hNav1.5 (setting [2]), 9.73 µM; on hNav1.3 (setting [3]), 40 nM.
On to `CC[C@H](C)[C@@H]1NC(=O)[C@@H]2CSSC[C@@H]3NC(=O)[C@H](C(C)C)NC(=O)[C@H](CC(C)C)NC(=O)[C@H](CC(N)=O)NC(=O)[C@@H]4CCCN4C(=O)[C@H](CCCNC(=N)N)NC(=O)[C@H](CSSC[C@H](NC(=O)[C@@H](N)CO)C(=O)N[C@@H](CC(C)C)C(=O)NCC(=O)N[C@@H](Cc4ccccc4)C(=O)N[C@@H](CCSC)C(=O)N[C@@H](CCCNC(=N)N)C(=O)N[C@@H](CCCCN)C(=O)N2)NC(=O)[C@H](CSSC[C@@H](C(=O)N[C@@H](CCCCN)C(=O)N[C@@H](Cc2ccc(O)cc2)C(=O)N[C@H](C(=O)N[C@@H](Cc2ccccc2)C(N)=O)C(C)C)NC(=O)[C@H](Cc2c[nH]c4ccccc24)NC(=O)[C@H](CCCCN)NC(=O)[C@H](Cc2c[nH]cn2)NC(=O)[C@H]([C@@H](C)O)NC(=O)[C@H](CCCNC(=N)N)NC(=O)[C@H](CO)NC3=O)NC(=O)[C@H](CCCCN)NC(=O)[C@H](CC(=O)O)NC(=O)[C@H](CC(N)=O)NC(=O)[C@H](CC(=O)O)NC(=O)[C@@H]2CCCN2C1=O` [SEQ ID NO: 191] (H-SCLGFMRKCIPDNDKCCRPNLVCSRTHKWCKYVF-NH2; disulfide 2-17, 9-23, 16-30), for which the IC50 at hNav1.7 (setting [1]) came out at 70 nM; at hNav1.5 (setting [2]), 9.4 µM; at hNav1.3 (setting [3]), 50 nM.
`CC[C@H](C)[C@@H]1NC(=O)[C@@H]2CSSC[C@@H]3NC(=O)[C@H](C(C)C)NC(=O)[C@H](CC(C)C)NC(=O)[C@H](CC(N)=O)NC(=O)[C@@H]4CCCN4C(=O)[C@H](CCCNC(=N)N)NC(=O)[C@H](CSSC[C@H](NC(=O)[C@@H](N)[C@@H](C)O)C(=O)N[C@@H](CC(C)C)C(=O)NCC(=O)N[C@@H](Cc4ccccc4)C(=O)N[C@@H](CCSC)C(=O)N[C@@H](CCCNC(=N)N)C(=O)N[C@@H](CCCCN)C(=O)N2)NC(=O)[C@H](CSSC[C@@H](C(=O)N[C@@H](CCCCN)C(=O)N[C@@H](Cc2ccc(O)cc2)C(=O)N[C@H](C(=O)N[C@@H](Cc2ccccc2)C(N)=O)C(C)C)NC(=O)[C@H](Cc2c[nH]c4ccccc24)NC(=O)[C@H](CCCCN)NC(=O)[C@H](Cc2c[nH]cn2)NC(=O)[C@H]([C@@H](C)O)NC(=O)[C@H](CCCNC(=N)N)NC(=O)[C@H](CO)NC3=O)NC(=O)[C@H](CCCCN)NC(=O)[C@H](CC(=O)O)NC(=O)[C@H](CC(N)=O)NC(=O)[C@H](CC(=O)O)NC(=O)[C@@H]2CCCN2C1=O` [SEQ ID NO: 192] (H-TCLGFMRKCIPDNDKCCRPNLVCSRTHKWCKYVF-NH2; disulfide 2-17, 9-23, 16-30): the IC50 on hNav1.7 (setting [1]) was 110 nM; on hNav1.5 (setting [2]), 9.21 µM; on hNav1.3 (setting [3]), 70 nM.
On to `CC[C@H](C)[C@@H]1NC(=O)[C@@H]2CSSC[C@@H]3NC(=O)[C@H](C(C)C)NC(=O)[C@H](CC(C)C)NC(=O)[C@H](CC(N)=O)NC(=O)[C@@H]4CCCN4C(=O)[C@H](CCCNC(=N)N)NC(=O)[C@H](CSSC[C@H](NC(=O)[C@@H](N)CC(=O)O)C(=O)N[C@@H](CC(C)C)C(=O)NCC(=O)N[C@@H](C)C(=O)N[C@@H](Cc4ccccc4)C(=O)N[C@@H](CCCNC(=N)N)C(=O)N[C@@H](CCCCN)C(=O)N2)NC(=O)[C@H](CSSC[C@@H](C(=O)N[C@@H](CCCCN)C(=O)N[C@@H](Cc2ccc(O)cc2)C(=O)N[C@H](C(=O)N[C@@H](Cc2ccccc2)C(N)=O)C(C)C)NC(=O)[C@H](Cc2c[nH]c4ccccc24)NC(=O)[C@H](CCCNC(=N)N)NC(=O)[C@H](Cc2cnc[nH]2)NC(=O)[C@H](CC(C)C)NC(=O)[C@H](CCCNC(=N)N)NC(=O)[C@H](CO)NC3=O)NC(=O)[C@H](CCCCN)NC(=O)[C@H](CC(=O)O)NC(=O)[C@H](CC(N)=O)NC(=O)[C@H](CC(=O)O)NC(=O)[C@@H]2CCCN2C1=O` [SEQ ID NO: 262, [Ala5,Phe6,Leu26,Arg28]GpTx-1] (H-DCLGAFRKCIPDNDKCCRPNLVCSRLHRWCKYVF-NH2; disulfide 2-17, 9-23, 16-30), for which the results for the IC50 against hNav1.7, at hNav1.5 (IWQ Use Nav1.5 (μM)) and on hNav1.3 were 50 nM, 5 µM and 40 nM, respectively.
For the molecule `CC[C@H](C)[C@@H]1NC(=O)[C@@H]2CSSC[C@@H]3NC(=O)[C@H](C(C)C)NC(=O)[C@H](CC(C)C)NC(=O)[C@H](CC(N)=O)NC(=O)[C@@H]4CCCN4C(=O)[C@H](CCCNC(=N)N)NC(=O)[C@H](CSSC[C@H](NC(=O)[C@@H](N)CC(=O)O)C(=O)N[C@@H](CC(C)C)C(=O)NCC(=O)N[C@@H](Cc4cn(C)c5ccccc45)C(=O)N[C@@H](CCSC)C(=O)N[C@@H](CCCNC(=N)N)C(=O)N[C@@H](CCCCN)C(=O)N2)NC(=O)[C@H](CSSC[C@@H](C(=O)N[C@@H](CCCCN)C(=O)N[C@@H](Cc2ccc(O)cc2)C(=O)N[C@H](C(=O)N[C@@H](Cc2ccccc2)C(N)=O)C(C)C)NC(=O)[C@H](Cc2c[nH]c4ccccc24)NC(=O)[C@H](CCCCN)NC(=O)[C@H](Cc2c[nH]cn2)NC(=O)[C@H]([C@@H](C)O)NC(=O)[C@H](CCCNC(=N)N)NC(=O)[C@H](CO)NC3=O)NC(=O)[C@H](CCCCN)NC(=O)[C@H](CC(=O)O)NC(=O)[C@H](CC(N)=O)NC(=O)[C@H](CC(=O)O)NC(=O)[C@@H]2CCCN2C1=O` [SEQ ID NO: 264], the IC50 on hNav1.7 (setting [1]) amounted to 90 nM; on hNav1.5 (setting [2]), 8.17 µM; on hNav1.3 (setting [3]), 90 nM.
As to `CC[C@H](C)[C@@H]1NC(=O)[C@@H]2CSSC[C@@H]3NC(=O)[C@H](C(C)C)NC(=O)[C@H](CC(C)C)NC(=O)[C@H](CC(N)=O)NC(=O)[C@@H]4CCCN4C(=O)[C@H](CCCNC(=N)N)NC(=O)[C@H](CSSC[C@H](NC(=O)[C@@H](N)CC(=O)O)C(=O)N[C@@H](CC(C)C)C(=O)NCC(=O)NCC(=O)N[C@@H](CCSC)C(=O)N[C@@H](CCCNC(=N)N)C(=O)N[C@@H](CCCCN)C(=O)N2)NC(=O)[C@H](CSSC[C@@H](C(=O)N[C@@H](CCCCN)C(=O)N[C@@H](Cc2ccc(O)cc2)C(=O)N[C@H](C(=O)N[C@@H](Cc2ccccc2)C(N)=O)C(C)C)NC(=O)[C@H](Cc2c[nH]c4ccccc24)NC(=O)[C@H](CCCCN)NC(=O)[C@H](Cc2cnc[nH]2)NC(=O)[C@H]([C@@H](C)O)NC(=O)[C@H](CCCNC(=N)N)NC(=O)[C@H](CO)NC3=O)NC(=O)[C@H](CCCCN)NC(=O)[C@H](CC(=O)O)NC(=O)[C@H](CC(N)=O)NC(=O)[C@H](CC(=O)O)NC(=O)[C@@H]2CCCN2C1=O` [SEQ ID NO: 265] (H-DCLGGMRKCIPDNDKCCRPNLVCSRTHKWCKYVF-NH2; disulfide 2-17, 9-23, 16-30), the IC50 came out at 750 nM on hNav1.7 (setting [1]), 7.47 µM at hNav1.5 (setting [2]) and 1240 nM on hNav1.3 (setting [3]).

Values taken from patent US9340590B2 (priority 2011, dated 2016).
